Reference: patent US11731946B2, “Broad spectrum antivirulence, anti-persistence compounds” (priority 2017, dated 2023)

How the values were obtained:
MvfR regulon [1] = test: pqsA gene expression (pqsA-GFP reporter); type: cell-based, P. aeruginosa; settings: for activity at 10 µM / activity at 50 µM: Pseudomonas aeruginosa; for activity at 10 µM: read-out: pqsA @10 uM (%), compound at 10 uM; for activity at 50 µM: read-out: pqsA @50 uM (%), compound at 50 uM
Protocol: Experiments were performed to identify compounds that inhibit the MvfR regulon without altering growth, ultimately attenuating P. aeruginosa infection. MvfR is a LysR-type transcriptional regulator that directs HAQs synthesis, including that of its ligands, 4-hydroxy-2-heptylquinoline (HHQ) and 3,4-dihydroxy-2-heptylquinoline (PQS).
MvfR promotes the production of HAQs by binding to and activating the pqs operon, which encodes enzymes for HAQ synthesis. Anthranilic acid (AA), derived from the phnAB, kynABU, and trpEG pathways, is the precursor for HAQs. pqsA encodes an anthranilate-coenzyme A ligase, which activates anthranilic acid and catalyzes the first committed step to HAQ production. The exact roles of PqsB and PqsC are unknown, though both show homology to acyl-carrier-proteins and both are required for HHQ and PQS production. […] The final gene of the operon, pqsE encodes for a putative hydrolase, and while the protein is not required for the synthesis of HAQs, it is necessary for pyocyanin production.
Nanomolar levels of most of these MvfR antagonists impeded the activity of MvfR and in consequence the MvfR virulence regulated ACRP functions, including: (1) the production of the important pro-acute P. aeruginosa virulence factor pyocyanin (see e.g., FIG. 9A) the efficacy of two of these potent inhibitors, D57 and D88, was also confirmed by testing many different MDR P. aeruginosa clinical isolates (see e.g., FIG. 11A-11B), providing further confidence of their inhibitory potency; (2) the expression of the genes that encode the enzymes catalyzing the synthesis of both pro-acute and pro-persistence MvfR-regulated virulence molecules, 4-hydroxyl-2-alkyl-quinolines (HAQs) and 2-aminoacetophenon (2-AA), as assessed by pqsAGFP reporter gene expression (see e.g., FIG. 9B) and HAQ production showing the levels of MvfR inducers/ligands HHQ and PQS as well as of the molecules critical for biofilm and Antibiotic tolerant/persiters cells formation HQNO and 2-AA (see e.g., FIG. 9C); (3) AT/P cell formation (see e.g., FIGS. 11A, 12A); (4) biofilm formation (see e.g., FIG. 12B); and (5) biofilm dispersal of preformed biofilm by potentiating antibiotic action (see e.g., FIG. 11B).

MvfR regulon [2] = test: Quantification of pyocyanin (OD520nm of chloroform-extracted cultures); type: cell-based, P. aeruginosa; settings: for IC50 / activity at 1 µM / activity at 10 µM / activity at 50 µM: Pseudomonas aeruginosa; for IC50: read-out: IC50 pyocyanin (μM); for activity at 1 µM: read-out: pyocyanin @1 uM (%), compound at 1 uM; for activity at 10 µM: read-out: pyocyanin @10 uM (%), compound at 10 uM; for activity at 50 µM: read-out: pyocyanin @50 uM (%), compound at 50 uM
[3] = compound at 50 uM, listed as D92

Row | Structure (SMILES) | activity at 10 µM (MvfR regulon [1]) [%] | IC50 (MvfR regulon [2]) [µM] | activity at 1 µM (MvfR regulon [2]) [%] | activity at 10 µM (MvfR regulon [2]) [%] | activity at 50 µM (MvfR regulon [2]) [%] | activity at 50 µM (MvfR regulon [1]) [%] | pqsA @50 uM (%) (MvfR regulon [1]; [3]) | pyocyanin @50 uM (%) (MvfR regulon [2]; [3])
1 | CC(C(=O)Nc1ccc(C#N)cc1)C(=O)Nc1ccc(C#N)cc1 [Compound 95] | 45.7 | 1.35 | 93.5 | 23.9 | 7 | – | – | –
2 | N#Cc1ccc(NC(=O)CS(=O)(=O)Nc2ccc(C#N)cc2)cc1 [Compound 96] | 118 | – | 97.3 | 109 | 111 | – | – | –
3 | N#Cc1ccc(NC(=O)CC(=O)N2CCc3cc(C#N)ccc32)cc1 [Compound 97] | 99.7 | – | 99.9 | 74.5 | 82.3 | – | – | –
4 | N#Cc1ccc(/C=C/C(=O)Nc2ccc(C#N)cc2)cc1 [Compound 98] | 114 | – | 94.5 | 108 | 114 | – | – | –
5 | N#Cc1ccc(NC(=O)CC(=O)Cc2ccc(F)cc2)cc1 [Compound 99] | 96.3 | – | 92 | 115 | 102 | – | – | –
6 | N#Cc1ccc(NC(=O)CC(=O)Nc2ccncc2)cc1 [Compound 100] | 88.9 | – | 66.3 | 101 | 81.9 | – | – | –
7 | N#Cc1ccc(NC(=O)/C=C/C(=O)Nc2ccc(F)cc2)cc1 [Compound 101] | 96.3 | – | – | – | 87.8 | – | – | –
8 | N#Cc1ccc(NC(=O)C2(C(=O)Nc3ccc(C#N)cc3)CC2)cc1 [Compound 102] | 93.4 | – | – | – | 96.8 | – | – | –
9 | N#Cc1ccc(NC(=O)CC(O)Cc2ccc(F)cc2)cc1 (centres unmarked) [Compound 104] | 97.3 | – | – | – | 95.3 | – | – | –
10 | N#Cc1ccc2c(c1)OCCN2C(=O)CC(=O)Nc1ccc(Oc2ccccc2)cc1 [Compound 105] | 47.3 | 2.78 | 68 | 32 | 11.4 | – | – | –
11 | N#Cc1ccc(NC(=O)CC(=O)Nc2ccc(C#N)nc2)cn1 [Compound 106] | 80 | – | 90 | 75.6 | 43.1 | 38.9 | – | –
12 | N#Cc1ccc(NC(=O)CC(=O)Nc2ccc(Oc3ccccc3)cc2)c(N)c1 [Compound 107] | 2.1 | – | 75 | 12.1 | – | – | 1.40 | 3.51
13 | CC(F)(C(=O)Nc1ccc(C#N)cc1)C(=O)Nc1ccc(C#N)cc1 [Compound 109] | 87 | – | 98.6 | 78.2 | 51.5 | 84.9 | – | –
14 | N#Cc1ccc(NC(=O)C(F)C(=O)Nc2ccc(C#N)cc2)cc1 [Compound 111] | 62.8 | – | 91.7 | 50.8 | 34 | 41.8 | – | –
15 | N#Cc1ccc(NC(=O)C(F)(F)C(=O)Nc2ccc(C#N)cc2)cc1 [Compound 112] | 95.4 | – | 101 | 87.1 | 93.6 | 95.1 | – | –
16 | O=C(CC(=O)Nc1ccc(C(F)(F)F)cc1)Nc1ccc(Oc2ccccc2)cc1 [Compound 113] | 37.2 | – | 68 | 60.9 | 42.1 | 28.8 | – | –
17 | N#Cc1ccc(NC(=O)C(N)C(=O)Nc2ccc(C#N)cc2)cc1 [Compound 114] | 58.9 | – | 94.9 | 66.1 | 2.85 | 1.75 | – | –
